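Five compound concentrations were applied to cells in 96-well plates for 48 hours; endpoints were derived by simple linear interpolation of the resulting dose-response curve. TGI is the concentration that stops growth completely.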
Key:
Assay in all cases: NCI-60 cell line screen, 48 h
[1] = system: SF-268 CNS
[2] = system: HOP-92 NSCLC
[3] = system: CAKI-1 renal
[4] = system: SNB-75 CNS
[5] = system: RXF 393 renal
[6] = system: MDA-N
[7] = system: OVCAR-5 ovarian
[8] = system: HCT-116 colon
[9] = system: A549 NSCLC
[10] = system: SK-MEL-5 melanoma
[11] = system: NCI/ADR-RES ovarian
[12] = system: M14 melanoma
[13] = system: EKVX NSCLC
[14] = system: SW-620 colon
[15] = system: DU-145 prostate
[16] = system: MCF7 breast
[17] = system: KM12 colon
[18] = system: OVCAR-4 ovarian
[19] = system: UO-31 renal
[20] = system: NCI-H522 lung
[21] = system: CCRF-CEM leukemia
[22] = system: BT-549 breast
[23] = system: SN12C renal
[24] = system: MDA-MB-435
[25] = system: SF-295 CNS
[26] = system: MDA-MB-231 breast
[27] = system: HOP-62 NSCLC
[28] = system: TK-10 renal
[29] = system: HL-60(TB) leukemia
[30] = system: LOX IMVI melanoma
[31] = system: U251 CNS
[32] = system: A498 renal
[33] = system: IGROV1 ovarian
[34] = system: SK-MEL-2 melanoma
[35] = system: ACHN renal
[36] = system: K-562 leukemia
[37] = system: NCI-H23 lung
[38] = system: NCI-H460 lung
[39] = system: 786-0 renal
[40] = system: HT29 colon
[41] = system: HS 578T breast
[42] = system: COLO 205 colon
[43] = system: SR leukemia
[44] = system: UACC-257 melanoma
[45] = system: RPMI-8226 leukemia
[46] = system: SK-MEL-28 melanoma
[47] = system: SF-539 CNS
[48] = system: SNB-19 CNS
[49] = system: PC-3 prostate
[50] = system: OVCAR-3 ovarian
[51] = system: MOLT-4 leukemia
[52] = system: OVCAR-8 ovarian
[53] = system: NCI-H226 lung
[54] = system: MALME-3M melanoma
[55] = system: HCC-2998 colon
[56] = system: HCT-15 colon
[57] = system: T-47D breast
[58] = system: UACC-62 melanoma
[59] = system: SK-OV-3 ovarian

Compound: CN1CCN(CCCCN2c3ccccc3Sc3cc(N=[N+]=[N-])ccc32)CC1
- TGI [1]: 22.4 µM
- TGI [2]: 6.43 µM
- TGI [3]: 5.32 µM
- TGI [4]: 10.1 µM
- TGI [5]: 9.83 µM
- TGI [6]: 11.2 µM
- TGI [7]: 25.8 µM
- TGI [8]: 2.98 µM
- TGI [9]: 3.93 µM
- TGI [10]: 3.04 µM
- TGI [11]: 7.86 µM
- TGI [12]: 3.28 µM
- TGI [13]: 15.1 µM
- TGI [14]: 3.47 µM
- TGI [15]: 15.1 µM
- TGI [16]: 3.63 µM
- TGI [17]: 3.48 µM
- TGI [18]: 7.5 µM
- TGI [19]: 3.76 µM
- TGI [20]: 3.31 µM
- TGI [21]: 4.66 µM
- TGI [22]: 21.9 µM
- TGI [23]: 6.46 µM
- TGI [24]: 3.17 µM
- TGI [25]: 5.65 µM
- TGI [26]: 4.14 µM
- TGI [27]: 6.63 µM
- TGI [28]: 3.43 µM
- TGI [29]: 6.08 µM
- TGI [30]: 3.22 µM
- TGI [31]: 7.83 µM
- TGI [32]: 22.8 µM
- TGI [33]: 4.26 µM
- TGI [34]: 5.04 µM
- TGI [35]: 4.56 µM
- TGI [36]: 3.04 µM
- TGI [37]: 18.7 µM
- TGI [38]: 3.8 µM
- TGI [39]: 3.03 µM
- TGI [40]: 3.03 µM
- TGI [41]: 5.02 µM
- TGI [42]: 3.25 µM
- TGI [43]: > 100 µM
- TGI [44]: 3.89 µM
- TGI [45]: 5.88 µM
- TGI [46]: 3.52 µM
- TGI [47]: 8.31 µM
- TGI [48]: 10.8 µM
- TGI [49]: 3.57 µM
- TGI [50]: 6.53 µM
- TGI [51]: 4.12 µM
- TGI [52]: 3.85 µM
- TGI [53]: 12.6 µM
- TGI [54]: 3.28 µM
- TGI [55]: 2.92 µM
- TGI [56]: 5.68 µM
- TGI [57]: 31.9 µM
- TGI [58]: 3.92 µM
- TGI [59]: 22 µM

Reference: PubChem BioAssay (NCI)
